Measurements as given in PubChem BioAssay AID179 (DTP/NCI, 2004).
The source made the active and inactive calls.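 Rule for the calls: active = compounds giving half or more protection of infected cells from virus-caused growth loss, again on retest; inactive = the rest.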

Tested on: CEM cells HIV-1 protection, formazan growth assay
Experiment: NCI AIDS Antiviral Assay
Settings: for IC50: measured here: growth of uninfected CEM cells
Summary of the method: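 Human CEM cells, uninfected and HIV-1-infected, received five drug concentrations, and growth was read by soluble formazan assay. Compounds giving at least 50% protection were retested; reproducible 100% protection defined confirmed active.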

Structure (SMILES)	EC50	IC50	outcome
CC(=O)c1ccc(NC(=O)C(=O)C(C#N)CC(C)(C)C=O)cc1 (stereo not given)	> 83.2 µM	> 83.2 µM	–
Cc1ccccc1NC(=O)Cc1csc2[n+]1C(=O)/C(=C\c1ccc3c(c1)OCO3)S2	> 200 µM	38.9 µM	–
O=C1NC(=O)C(=CN2C(=O)/C(=C/c3ccc(O)cc3)SC2=S)C(=O)N1	> 200 µM	41.7 µM	–
C=C1C2CCC3(C4C[C@@H]5C6(C)CCCC5([C@H](O4)N4CCO[C@H]46)[C@@H]3C2)C1OC(C)=O (stereo not given in full)	> 18.2 µM	> 18.2 µM	–
Cc1ccc(S(=O)(=O)N/N=C2/CC3CCC2C3)cc1 (stereo not given)	> 200 µM	> 200 µM	–
Cc1ccc(S(=O)(=O)/C(C#N)=C\N2CCNC2=S)cc1	> 200 µM	> 200 µM	–
C=C(C)CNC(=S)N(N)c1ccc(OC)cc1	> 200 µM	69.2 µM	–
Nc1cnn2nnnc2c1Cl	> 200 µM	> 200 µM	–
CCCCCN(CCCCC)CCC(=O)c1ccc2cc(Br)c3ccccc3c2c1	> 200 µM	12.6 µM	–
CC(=O)Oc1ccc(N2C(=O)C3c4[nH]c5ccccc5c4C4CCC(C(C)(C)C)CC4C3C2=O)cc1 (stereo not given)	> 200 µM	9.77 µM	–
CC(C)(C)/C(O)=C\c1nc2cc(C(F)(F)F)ccc2[nH]c1=O	> 200 µM	> 200 µM	–
C=C[C@H](C)[C@H](O[Si](C)(C)C(C)(C)C)c1c(O)c2c(c3c(CCC)cc(=O)oc13)OC(C)(C)C=C2	> 200 µM	39.8 µM	–
O=C(OC[C@]12OC1C=C[C@H](OC(=O)c1ccccc1)C2O)c1ccccc1 (stereo not given in full)	> 24.5 µM	23.4 µM	–
CCOC(=O)CCC1(C(=O)OCC)CCCC1=O (stereo not given)	> 263 µM	> 263 µM	–
Cn1c2c(c3ccccc31)CCN(CCCN1CCN(c3ccccc3)CC1)C2=O	> 55 µM	44.7 µM	–
C=CCCCCCCCCC(=O)NCc1nc2ccccc2[nH]1	> 200 µM	29.5 µM	–
Cc1ccc(C(=O)O)cc1S(=O)(=O)Nn1cnc2ccc(S(=O)(=O)Nc3ccccc3C(=O)O)cc2c1=O	> 200 µM	> 200 µM	–
COc1ccc(-n2c(=O)[nH]n(C(C)=O)c2=O)cc1	> 200 µM	> 200 µM	–
CC12CCC3c4cc(Br)c(O)c(Br)c4CCC3C1CCC2O (stereo not given)	> 200 µM	6.76 µM	–
CCN(CC)CCNc1c(OC)c(OC)cc2nccnc12	> 200 µM	64.6 µM	–
O=c1[nH]c2ccc(Cl)cc2o1	182 µM	> 200 µM	–
COc1cc(C(=O)C/C(CCC(=O)Nc2ccc(Cl)cc2C)=N/NC(=O)C(N)=O)ccc1O	–	–	inactive

Structure (SMILES)	EC50	IC50	outcome
O=C1CS(=O)(=O)C(c2ccccc2)N1N1C(=O)CS(=O)(=O)C1c1ccccc1 (stereo not given)	> 200 µM	> 200 µM	–
Cn1c(=O)cc(NNc2ccccc2)[nH]c1=O	> 200 µM	3.09 µM	–
COC(=O)C1C(=O)N(C)c2cc(C)c(C)cc2C1(C)C (stereo not given)	> 200 µM	> 200 µM	–
O=C(c1ccccc1)N1C(=O)N(c2ccccc2)C(=Nc2ccccc2)C1=Nc1ccccc1	> 200 µM	19.1 µM	–
Nc1o[nH]c(=O)c1C1CCCCC1	> 200 µM	> 200 µM	–
O=C(Nc1ccc(-c2ccccc2)oc1=O)c1ccccc1	> 100 µM	> 100 µM	–
COc1ccc(/C=C2\CN(C)CC3C2=NN(c2ccccc2)C3c2ccc(OC)cc2)cc1 (stereo not given)	> 200 µM	> 200 µM	–
CN=c1sc2nc(C#N)c(C#N)nc2n1C	> 200 µM	10.2 µM	–
NC(=S)C(=S)N/C=C(/c1ccc(Cl)cc1)S(=O)(=O)Cc1ccc(Cl)cc1	–	–	inactive
Cc1cccc(C)c1NC(=O)C(=O)C(C(=O)c1ccccc1-c1ccccc1)C1OC(=O)c2ccccc21 (stereo not given)	> 135 µM	24.5 µM	–
Cc1c2ccccc2nc(CSc2ccccc2N)[n+]1[O-]	64.6 µM	> 200 µM	–
COc1ccc2c(c1)OCC(O)(c1ccccc1)C2=O (stereo not given)	> 200 µM	155 µM	–
CN(C)c1ccc(N2C(=S)SC(=Nc3ccccc3)C2=Nc2ccccc2)cc1	> 200 µM	> 200 µM	–
CCOC(=O)C(=O)Nc1ccc(C)c(C)c1	> 427 µM	> 427 µM	–
NC1=Nc2ccccc2Sc2nncn21	> 200 µM	151 µM	–
NC(=S)N/N=C/c1cn(CCCl)c2ccccc12	> 25.7 µM	15.8 µM	–
CCCCCCCCCCCCCCCC=C(c1cc(Cl)c(O)c(C(=O)O)c1)c1cc(Cl)c(O)c(C(=O)O)c1	20.9 µM	34.7 µM	–
Cc1ccc(-c2c(C#N)c(-c3ccccc3)c(C#N)c(=O)n2NS(=O)(=O)c2ccc(C)cc2)cc1	> 200 µM	57.5 µM	–
Cc1c(C)c2c(c(N)c1C#N)C(=O)N(CCN1CCNCC1)C2=O	> 200 µM	20.4 µM	–
O=C1[C@H](Cl)[C@H]2c3cc4ccccc4nc3Oc3ccccc3N12	> 22.4 µM	> 22.4 µM	–
CC1CCC2(OC1)OC1CC3C4CCC5CC(O)CCC5(C)C4CC(=O)OC3(C)C1C2C (stereo not given)	–	–	inactive
O=c1c(SCc2ccccc2Cl)c(SCc2ccccc2Cl)cnn1-c1ccccc1	> 7.76 µM	5.5 µM	–

Structure (SMILES)	EC50	IC50	outcome
CC(C)=CCN1CC(C)Cn2c(=S)[nH]c3cccc1c32 (stereo not given)	1.17 µM	> 100 µM	–
CC(=O)O[C@H]1CCN2C(=O)C=CC(OCc3ccccc3)C12 (stereo not given in full)	> 832 µM	794 µM	–
O=C(CCN1CCCCC1)Nc1ccc2c(c1)C(=O)c1ccc(NC(=O)CCN3CCCCC3)cc1C2=O	> 200 µM	1.86 µM	–
COc1ccc(/C=C/C(=O)Oc2cc(O)cc(O)c2)cc1	> 200 µM	4.57 µM	–
C=C=C(Sc1ccccc1)C(C)(C)O	> 251 µM	158 µM	–
CC(C)CC(NC(=O)C(CI)Cc1ccccc1)C(=O)Nc1ccccc1 (stereo not given)	> 100 µM	> 100 µM	–
COC1=CC(=O)O[C@]2(C)OCC(C)C(O)=C12 (stereo not given in full)	> 1100 µM	> 1100 µM	–
O=C1NCc2ccccc2S(=O)(=O)n2cccc21	> 200 µM	120 µM	–
O=S(=O)(O)SCNCNCCSCc1ccccc1	> 138 µM	45.7 µM	–
O=C1c2ccccc2C(=O)c2c1ccc1c2N=C(c2ccc(F)cc2)CC(c2ccc(Cl)c(Cl)c2)N1 (stereo not given)	> 14.1 µM	> 14.1 µM	–
CN(C(=O)Cc1ccccc1)n1cnn(CC(=O)OC(C)(C)C)c1=S	> 200 µM	> 200 µM	–
COc1ccc(/C=C/C(=O)c2nc3ccccc3n2C)cc1	> 200 µM	26.9 µM	–
COC(=O)c1cc(C(=CCCCC=O)c2cc(Cl)c(OC)c(C(=O)OC)c2)cc(Cl)c1OC	> 200 µM	11.5 µM	–
O=[N+]([O-])c1cccc2nccc(NCCN3CCOCC3)c12	> 200 µM	10 µM	–
[NH-]CC[NH-].[NH-]CC[NH-].[NH-]CC[NH-].[Ni+2].[O-][Cl+3]([O-])([O-])O	> 200 µM	77.6 µM	–
O=[N+]([O-])c1ccc(N=Nc2ccc(N=C=S)cc2)cc1	> 200 µM	110 µM	–
CCOC(=O)NC(C(=O)OCC)(N1CCN(c2cc3c(cc2F)c(=O)c(C(=O)O)cn3CC)CC1)C(F)(F)F (stereo not given)	> 200 µM	145 µM	–
Cc1ccc(N=Nc2c(O)c(S(=O)(=O)O)cc3cc(S(=O)(=O)O)ccc23)c(C)c1	–	–	inactive
CC1(C)c2ccccc2N2C(c3ccccc3)=NOC21C (stereo not given)	> 25.7 µM	> 25.7 µM	–
Cc1nc2c(cc1C(=O)N/N=C/c1ccc([N+](=O)[O-])cc1)c(=O)n(C)c(=O)n2C	> 200 µM	> 200 µM	–
Cc1c2c(n(Cc3ccccn3)c1C)NN=C(C#N)S2(=O)=O	> 200 µM	> 200 µM	–
CC1(C)C(c2ccccc2)=[N+]([O-])C(C)(C)N1O	> 200 µM	170 µM	–

Structure (SMILES)	EC50	IC50	outcome
CCc1ccccc1NC(=O)C(=O)CC(=O)c1sc(Nc2ccccc2Cl)nc1C	> 200 µM	87.1 µM	–
Nc1ncnc2sc(Nc3ccccc3)nc12	> 53.7 µM	33.1 µM	–
CP1CCC(O)(c2ccccc2)CC1 (stereo not given)	> 200 µM	> 200 µM	–
COc1ccc(-n2nc(C)cc(N)c2=O)cc1	> 1070 µM	> 1070 µM	–
CC(=O)NC(C=O)C(O[C@H](C)C(=O)NC(C)C(=O)NC(CCC(N)=O)C(=O)OCc1ccccc1)C(O)C(O)COC(=O)CCNc1c2ccccc2nc2cccc([N+](=O)[O-])c12 (stereo not given in full)	> 21.4 µM	15.1 µM	–
CCOC(=O)Nc1[nH]c(C)c(Cc2ccccc2)c1C#N	> 200 µM	12.3 µM	–
CCN(CC)c1ccc2cc(C(N)=S)c(=N)oc2c1	> 61.7 µM	20.4 µM	–
CC(=O)C1Cn2c(=O)c3cc4ccccc4cc3c(=O)n2C=C1C (stereo not given)	> 112 µM	> 112 µM	–
CC(C)(C)OC(=O)N(CCNS(=O)(=O)c1cccc2cnccc12)CCC(=O)ON1C(=O)CCC1=O	> 200 µM	> 200 µM	–
CC(C)(C)C#C[P+](c1ccccc1)(c1ccccc1)c1ccccc1	> 2 µM	0.012 µM	–
Cc1ccc2c(c1C)C(=O)/C(=C/c1ccccc1C(=O)O)C2	38 µM	93.3 µM	–
C=CCc1ccccc1OP(=O)(Oc1ccc(C(C)(C)C)cc1)Oc1ccc(C(C)(C)C)cc1	–	–	inactive
Nc1nc(Cl)c(N)c(NCC2(CO)CCCC2)n1	> 200 µM	102 µM	–
NS(=O)(=O)c1ccc2c(c1)OCCOCCOCCOCCO2	> 200 µM	> 200 µM	–
CCC/C(Cl)=N\OC(=O)Nc1ccc(OC(F)(F)F)cc1	> 20 µM	5.37 µM	–
[N-]=[N+]=Nc1ccccc1C(=O)N1C(=O)c2ccccc2C(=O)N(C(=O)c2ccccc2N=[N+]=[N-])c2ccccc21	> 200 µM	72.4 µM	–
Oc1c(CN2CCCCC2)ccc2ccccc12	> 200 µM	186 µM	–
Cc1cc(S(=O)(=O)Nc2nnc3cc(C(F)(F)F)cc(C)n23)c(S)cc1Cl	50.1 µM	132 µM	–
O=C(NCCCNCCCCNCCCNC(=O)C(F)(F)F)C(F)(F)F	> 200 µM	14.8 µM	–
COC(=O)C1=C(C(=O)OC)C2(c3ccccc3)OC1(c1ccccc1)c1cc3ccccc3cc12	–	–	inactive
CCC(=O)c1c(O)c2ccccc2oc1=O	> 200 µM	> 100 µM	–
COc1ccc(SCc2cc(OC)c(OC)c(OC)c2)cc1OC	> 200 µM	45.7 µM	–
